Reference: ChEMBL document CHEMBL1149429, “Privileged structure-based quinazolinone natural product-templated libraries: identification of novel tubulin polymerization inhibitors” (Bioorg Med Chem Lett, 2006)
Calls of active or inactive are those of the source. The calls are words filed in the database; no cut-off is given here.

How the values were obtained:
NCI-H460 = assay: Antiproliferative activity against NCI-H460 cell line by MTS assay; format: functional, cell-based; conditions: Homo sapiens
A549 = assay: Antiproliferative activity against A549 cell line by MTS assay; format: functional, cell-based; conditions: Homo sapiens
DU-145 = assay: Antiproliferative activity against DU145 cell line by MTS assay; format: functional, cell-based; conditions: Homo sapiens
MDA-MB-231 = assay: Antiproliferative activity against MDA-MB-231 cell line by MTS assay; format: functional, cell-based; conditions: Homo sapiens
SF-268 = assay: Antiproliferative activity against SF268 cell line by MTS assay; format: functional, cell-based; conditions: Homo sapiens
HMEC = assay: Antiproliferative activity against HMEC cell line by MTS assay; format: functional, cell-based; conditions: Homo sapiens
Tubulin = assay: Effect on induction of mitotic arrest by phosphohistone H3 (pH3) assay; format: functional
Tubulin (Homo sapiens) = Tubulin (Homo sapiens) (UniProt P68371+Q9H4B7+P0DPH7+P68366+Q13509+Q71U36+P04350+Q3ZCM7+P07437+P68363+Q9BQE3+Q6PEY2+Q13885+Q9BVA1+Q9BUF5); assay: Inhibitory activity against tubulin polymerization; format: protein-complex assay

Row | Structure (SMILES) | IC50 (NCI-H460) [µM] | IC50 (A549) [µM] | IC50 (DU-145) [µM] | IC50 (MDA-MB-231) [µM] | IC50 (SF-268) [µM] | IC50 (HMEC) [µM] | EC50 (Tubulin) [µM] | Activity (Tubulin (Homo sapiens))
1 | COc1cc(/C=C2\CCCn3c2nc2c(C)cc(C)cc2c3=O)cc(OC)c1O | 0.24 | 0.55 | 0.79 | 2.09 | 0.83 | > 20 | 0.26 | Active
2 | COc1cc(/C=C2\CCCn3c2nc2c(OC)cccc2c3=O)cc(OC)c1O | 0.33 | 0.69 | 0.51 | 1.3 | 0.79 | > 20 | 0.54 | Active
3 | COc1cc(/C=C2\CCCn3c2nc2ccc(Br)cc2c3=O)cc(OC)c1O | 1.98 | 11.7 | 8.47 | > 20 | 6.72 | > 20 | 2.38 | Active
4 | CC(=O)O[C@H]1C(=O)[C@@]2(C)[C@H]([C@H](OC(=O)c3ccccc3)[C@]3(O)C[C@H](OC(=O)[C@H](O)[C@@H](NC(=O)c4ccccc4)c4ccccc4)C(C)=C1C3(C)C)[C@]1(OC(C)=O)CO[C@@H]1C[C@@H]2O [PACLITAXEL] | 0.012 | 0.013 | – | – | – | – | 0.031 | –
5 | COc1cc(/C=C2\CCCn3c2nc2ccc(Cl)cc2c3=O)cc(OC)c1O | 8.63 | > 20 | 18.3 | > 20 | 18.6 | > 20 | – | Active
6 | COc1ccc2nc3n(c(=O)c2c1)CCC/C3=C\c1cc(OC)c(O)c(OC)c1 | 3.71 | > 20 | 10.3 | > 20 | > 20 | > 20 | – | Active
7 | COc1cc(/C=C2\CCCn3c2nc2ccc(C)cc2c3=O)cc(OC)c1O | 3.2 | > 20 | 14.7 | > 20 | 11.5 | > 20 | – | Active
8 | COc1cc(/C=C2\CCCn3c2nc2c(O)cccc2c3=O)cc(OC)c1O | 1.36 | 5.49 | 3.11 | 7.72 | 4.76 | > 20 | 1.16 | Active
9 | COc1cc(/C=C2\CCCn3c2nc2ccc(I)cc2c3=O)cc(OC)c1O | 4.31 | 10.6 | 10.3 | > 20 | 11.2 | > 20 | 10.6 | Active
10 | COc1cc(/C=C2\CCCn3c2nc2c(C)cccc2c3=O)cc(OC)c1O | 1.5 | 3.17 | 2.63 | 11.2 | 3.48 | > 20 | 1.64 | Active
11 | COc1cc(/C=C2\CCCn3c2nc2ccc(O)cc2c3=O)cc(OC)c1O | 14.9 | > 20 | > 20 | > 20 | > 20 | > 20 | – | Active
12 | COc1cc(/C=C2\CCCn3c2nc2ccc(F)cc2c3=O)cc(OC)c1O | 3.91 | 9.43 | 14.2 | > 20 | 14.1 | > 20 | – | Active
